Experiments:
Assay in all cases: biochemical
Conditions in all cases: read-out: % inhibition mean (Lanthascreen)
MAP2K2 (MEK2) = MAP2K2 (MEK2) (Homo sapiens, UniProt P36507)
VRK2 = VRK2 (Homo sapiens, UniProt Q86Y07)
MAPK8 (JNK1) = MAPK8 (JNK1) (Homo sapiens, UniProt P45983)
RIPK2 = RIPK2 (Homo sapiens, UniProt O43353)
CDC7/DBF4 = CDC7/DBF4 (Homo sapiens, UniProt O00311)
EPHA3 = EPHA3 (Homo sapiens, UniProt P29320)
FGFR3 K650M = FGFR3 K650M (Homo sapiens, UniProt P22607, K650M)
ALK R1275Q = ALK R1275Q (Homo sapiens, UniProt Q9UM73, R1275Q)
TLK1 = TLK1 (Homo sapiens, UniProt Q9UKI8)
TLK2 = TLK2 (Homo sapiens, UniProt Q86UE8)
KIT D820E = KIT D820E (Homo sapiens, UniProt P10721, D820E)
SIK1 = SIK1 (Homo sapiens, UniProt P57059)
CDK2/cyclin E1 = CDK2/cyclin E1 (Homo sapiens, UniProt P24941)
TNIK = TNIK (Homo sapiens, UniProt Q9UKE5)
KIT A829P = KIT A829P (Homo sapiens, UniProt P10721, A829P)
CDK16 (PCTK1)/cyclin Y = CDK16 (PCTK1)/cyclin Y (Homo sapiens, UniProt Q00536)
TESK1 = TESK1 (Homo sapiens, UniProt Q15569)
MAPK10 (JNK3) = MAPK10 (JNK3) (Homo sapiens, UniProt P53779)
CDK2/cyclin O = CDK2/cyclin O (Homo sapiens, UniProt P24941)
ABL1 M351T = ABL1 M351T (Homo sapiens, UniProt P00519, M351T)
STK32B (YANK2) = STK32B (YANK2) (Homo sapiens, UniProt Q9NY57)
STK17B (DRAK2) = STK17B (DRAK2) (Homo sapiens, UniProt O94768)
MYO3A (MYO3 alpha) = MYO3A (MYO3 alpha) (Homo sapiens, UniProt Q8NEV4)
ERN1 = ERN1 (Homo sapiens, UniProt O75460)
DMPK = DMPK (Homo sapiens, UniProt Q09013)
WNK1 = WNK1 (Homo sapiens, UniProt Q9H4A3)
CDK2/cyclin A1 = CDK2/cyclin A1 (Homo sapiens, UniProt P24941)
MAPK15 (ERK7) = MAPK15 (ERK7) (Homo sapiens, UniProt Q8TD08)
KIT Y823D = KIT Y823D (Homo sapiens, UniProt P10721, Y823D)

TLK1, sequence (Q9UKI8 whole entry): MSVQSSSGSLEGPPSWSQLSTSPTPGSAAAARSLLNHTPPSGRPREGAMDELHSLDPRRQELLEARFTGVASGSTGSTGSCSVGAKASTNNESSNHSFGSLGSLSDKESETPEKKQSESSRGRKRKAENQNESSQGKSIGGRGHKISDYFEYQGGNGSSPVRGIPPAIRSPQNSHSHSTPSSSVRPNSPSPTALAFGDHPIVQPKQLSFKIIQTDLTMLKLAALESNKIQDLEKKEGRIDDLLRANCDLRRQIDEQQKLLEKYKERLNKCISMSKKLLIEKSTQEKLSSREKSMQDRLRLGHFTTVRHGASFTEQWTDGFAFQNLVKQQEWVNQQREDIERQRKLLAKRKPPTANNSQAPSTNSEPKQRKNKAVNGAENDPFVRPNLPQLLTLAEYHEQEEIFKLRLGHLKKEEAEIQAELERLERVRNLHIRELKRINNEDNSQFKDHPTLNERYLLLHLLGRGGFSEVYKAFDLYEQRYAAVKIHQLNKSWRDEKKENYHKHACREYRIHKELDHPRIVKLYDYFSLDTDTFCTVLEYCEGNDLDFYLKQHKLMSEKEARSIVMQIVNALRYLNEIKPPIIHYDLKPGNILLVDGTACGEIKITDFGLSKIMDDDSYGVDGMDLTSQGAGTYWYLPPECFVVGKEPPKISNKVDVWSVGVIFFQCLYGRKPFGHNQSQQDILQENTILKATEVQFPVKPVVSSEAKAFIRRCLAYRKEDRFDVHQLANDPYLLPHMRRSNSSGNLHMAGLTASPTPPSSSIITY
WNK1, sequence (Q9H4A3 whole entry): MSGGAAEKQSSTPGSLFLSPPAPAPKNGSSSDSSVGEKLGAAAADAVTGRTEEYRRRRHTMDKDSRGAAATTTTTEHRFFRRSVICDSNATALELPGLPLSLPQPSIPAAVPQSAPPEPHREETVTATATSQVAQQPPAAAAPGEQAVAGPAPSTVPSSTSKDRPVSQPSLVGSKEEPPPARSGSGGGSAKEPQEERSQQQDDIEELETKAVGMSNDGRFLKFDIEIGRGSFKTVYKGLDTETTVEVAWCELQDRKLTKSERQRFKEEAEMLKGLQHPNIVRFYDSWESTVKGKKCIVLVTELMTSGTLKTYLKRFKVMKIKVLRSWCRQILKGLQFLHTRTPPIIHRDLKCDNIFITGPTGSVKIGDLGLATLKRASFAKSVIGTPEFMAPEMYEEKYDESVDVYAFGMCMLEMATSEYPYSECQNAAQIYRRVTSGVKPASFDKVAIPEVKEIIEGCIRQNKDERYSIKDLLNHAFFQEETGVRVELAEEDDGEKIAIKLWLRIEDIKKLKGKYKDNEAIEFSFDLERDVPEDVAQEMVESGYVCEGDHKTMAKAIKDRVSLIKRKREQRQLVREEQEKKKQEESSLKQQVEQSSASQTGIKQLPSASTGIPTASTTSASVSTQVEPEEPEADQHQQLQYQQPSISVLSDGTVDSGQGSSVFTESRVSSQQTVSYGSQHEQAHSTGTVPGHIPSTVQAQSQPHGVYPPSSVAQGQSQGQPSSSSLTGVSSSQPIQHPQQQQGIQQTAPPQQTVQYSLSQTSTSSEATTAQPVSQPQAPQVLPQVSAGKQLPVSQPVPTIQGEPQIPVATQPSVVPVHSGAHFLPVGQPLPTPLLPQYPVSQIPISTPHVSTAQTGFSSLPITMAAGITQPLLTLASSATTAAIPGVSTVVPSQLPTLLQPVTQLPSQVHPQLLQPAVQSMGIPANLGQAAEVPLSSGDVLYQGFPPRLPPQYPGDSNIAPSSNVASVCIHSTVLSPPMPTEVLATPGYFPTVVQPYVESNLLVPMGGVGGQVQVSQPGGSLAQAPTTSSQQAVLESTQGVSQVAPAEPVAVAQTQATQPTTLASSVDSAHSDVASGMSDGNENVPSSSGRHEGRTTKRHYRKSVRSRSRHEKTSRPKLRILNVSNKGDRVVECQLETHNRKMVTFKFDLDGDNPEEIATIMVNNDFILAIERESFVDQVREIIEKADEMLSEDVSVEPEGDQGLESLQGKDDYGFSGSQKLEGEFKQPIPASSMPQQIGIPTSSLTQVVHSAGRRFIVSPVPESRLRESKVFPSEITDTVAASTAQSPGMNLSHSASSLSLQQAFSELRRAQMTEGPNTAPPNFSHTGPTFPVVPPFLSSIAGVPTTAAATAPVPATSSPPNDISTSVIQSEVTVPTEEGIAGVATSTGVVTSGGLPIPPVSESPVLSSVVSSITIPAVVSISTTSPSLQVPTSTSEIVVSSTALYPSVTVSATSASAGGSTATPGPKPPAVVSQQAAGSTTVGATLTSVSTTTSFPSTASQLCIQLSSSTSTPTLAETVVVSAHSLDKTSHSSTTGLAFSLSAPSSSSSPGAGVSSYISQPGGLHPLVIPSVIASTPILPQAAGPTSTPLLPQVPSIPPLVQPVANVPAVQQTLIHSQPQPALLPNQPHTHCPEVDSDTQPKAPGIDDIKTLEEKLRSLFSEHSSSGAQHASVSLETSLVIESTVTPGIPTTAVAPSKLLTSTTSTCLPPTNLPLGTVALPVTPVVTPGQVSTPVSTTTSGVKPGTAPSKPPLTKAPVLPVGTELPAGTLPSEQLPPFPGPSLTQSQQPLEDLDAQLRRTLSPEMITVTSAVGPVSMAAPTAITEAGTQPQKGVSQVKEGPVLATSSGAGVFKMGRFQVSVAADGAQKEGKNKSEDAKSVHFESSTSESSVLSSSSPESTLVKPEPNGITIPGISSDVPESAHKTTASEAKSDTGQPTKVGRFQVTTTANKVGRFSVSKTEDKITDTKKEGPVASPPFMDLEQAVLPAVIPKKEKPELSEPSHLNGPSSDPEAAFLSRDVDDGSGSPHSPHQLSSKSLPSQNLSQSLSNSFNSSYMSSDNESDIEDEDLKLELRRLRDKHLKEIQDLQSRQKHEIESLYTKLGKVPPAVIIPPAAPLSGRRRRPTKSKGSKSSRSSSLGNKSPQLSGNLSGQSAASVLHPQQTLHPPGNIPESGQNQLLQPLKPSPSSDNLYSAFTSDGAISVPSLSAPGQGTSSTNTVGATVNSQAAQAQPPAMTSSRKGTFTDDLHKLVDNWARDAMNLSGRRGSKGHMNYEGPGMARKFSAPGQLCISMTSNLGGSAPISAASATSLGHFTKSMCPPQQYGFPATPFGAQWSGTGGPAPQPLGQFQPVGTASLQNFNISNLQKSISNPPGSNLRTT
MYO3A (MYO3 alpha), sequence (Q8NEV4 whole entry): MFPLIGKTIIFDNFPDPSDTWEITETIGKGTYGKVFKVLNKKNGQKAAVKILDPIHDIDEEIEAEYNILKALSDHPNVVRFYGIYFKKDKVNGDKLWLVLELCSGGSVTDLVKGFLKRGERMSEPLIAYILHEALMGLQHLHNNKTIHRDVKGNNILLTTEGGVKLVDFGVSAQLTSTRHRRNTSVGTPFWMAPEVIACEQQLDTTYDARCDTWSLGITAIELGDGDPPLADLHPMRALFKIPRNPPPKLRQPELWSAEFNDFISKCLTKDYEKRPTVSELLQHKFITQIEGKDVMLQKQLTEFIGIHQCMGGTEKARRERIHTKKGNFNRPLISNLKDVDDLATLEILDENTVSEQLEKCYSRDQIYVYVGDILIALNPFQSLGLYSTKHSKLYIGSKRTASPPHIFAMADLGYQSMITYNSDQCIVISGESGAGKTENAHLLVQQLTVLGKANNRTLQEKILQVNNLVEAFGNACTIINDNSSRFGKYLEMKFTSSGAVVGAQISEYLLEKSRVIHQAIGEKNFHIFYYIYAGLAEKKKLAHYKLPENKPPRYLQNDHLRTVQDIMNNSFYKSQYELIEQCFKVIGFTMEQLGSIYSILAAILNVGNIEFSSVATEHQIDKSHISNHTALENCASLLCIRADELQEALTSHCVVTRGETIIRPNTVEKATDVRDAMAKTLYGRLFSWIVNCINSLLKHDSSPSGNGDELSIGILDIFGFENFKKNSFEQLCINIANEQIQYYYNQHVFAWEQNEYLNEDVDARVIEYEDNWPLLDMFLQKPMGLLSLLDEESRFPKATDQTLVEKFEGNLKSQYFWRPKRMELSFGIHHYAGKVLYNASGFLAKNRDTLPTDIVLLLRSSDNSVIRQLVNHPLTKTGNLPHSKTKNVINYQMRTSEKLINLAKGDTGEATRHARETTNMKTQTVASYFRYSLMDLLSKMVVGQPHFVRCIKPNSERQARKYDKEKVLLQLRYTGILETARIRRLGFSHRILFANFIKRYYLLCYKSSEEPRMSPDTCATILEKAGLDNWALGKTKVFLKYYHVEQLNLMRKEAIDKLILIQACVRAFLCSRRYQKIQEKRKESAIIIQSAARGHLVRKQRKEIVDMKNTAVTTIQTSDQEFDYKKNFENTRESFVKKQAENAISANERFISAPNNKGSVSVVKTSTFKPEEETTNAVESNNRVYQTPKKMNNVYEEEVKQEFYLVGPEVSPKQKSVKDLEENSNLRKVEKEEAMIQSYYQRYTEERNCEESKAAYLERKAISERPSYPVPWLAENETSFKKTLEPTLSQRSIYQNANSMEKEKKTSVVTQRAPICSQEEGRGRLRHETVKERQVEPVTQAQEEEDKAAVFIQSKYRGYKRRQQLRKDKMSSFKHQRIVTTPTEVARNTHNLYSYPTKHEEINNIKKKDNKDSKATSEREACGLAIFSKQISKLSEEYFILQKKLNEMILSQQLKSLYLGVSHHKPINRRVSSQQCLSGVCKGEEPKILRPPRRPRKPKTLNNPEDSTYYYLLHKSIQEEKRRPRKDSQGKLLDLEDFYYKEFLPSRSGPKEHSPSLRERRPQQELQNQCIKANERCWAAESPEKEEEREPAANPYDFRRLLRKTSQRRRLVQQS
STK17B (DRAK2), sequence (O94768 whole entry): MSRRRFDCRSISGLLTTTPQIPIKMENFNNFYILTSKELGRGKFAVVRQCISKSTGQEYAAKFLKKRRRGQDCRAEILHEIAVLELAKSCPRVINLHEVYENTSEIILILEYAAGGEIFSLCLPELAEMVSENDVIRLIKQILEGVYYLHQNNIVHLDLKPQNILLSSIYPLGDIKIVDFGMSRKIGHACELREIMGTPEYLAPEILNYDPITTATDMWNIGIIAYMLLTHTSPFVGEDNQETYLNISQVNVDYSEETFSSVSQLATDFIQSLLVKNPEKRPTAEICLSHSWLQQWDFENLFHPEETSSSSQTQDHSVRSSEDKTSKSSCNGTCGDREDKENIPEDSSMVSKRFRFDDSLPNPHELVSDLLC

SMILES: COc1ccc2nc3cc(Cl)ccc3c(Nc3cc(CN4CCCC4)c(O)c(CN4CCCC4)c3)c2n1 [Pyronaridine, 4-[(7-Chloro-2-methoxybenzo[b][1,5]naphthyridin-10-yl)amino]-2,6-bis(1-pyrrolidinylmethyl)phenol phosphate (1:4)]
- inhibition at 1 µM (MAP2K2 (MEK2)): -3%
- inhibition at 1 µM (VRK2): -4%
- inhibition at 1 µM (MAPK8 (JNK1)): 3%
- inhibition at 1 µM (RIPK2): 1%
- inhibition at 1 µM (CDC7/DBF4): -6%
- inhibition at 1 µM (EPHA3): 11%
- inhibition at 1 µM (FGFR3 K650M): -4%
- inhibition at 1 µM (ALK R1275Q): 6%
- inhibition at 1 µM (TLK1): 12%
- inhibition at 1 µM (TLK2): -2%
- inhibition at 1 µM (KIT D820E): -4%
- inhibition at 1 µM (SIK1): 2%
- inhibition at 1 µM (CDK2/cyclin E1): 0%
- inhibition at 1 µM (TNIK): -1%
- inhibition at 1 µM (KIT A829P): -9%
- inhibition at 1 µM (CDK16 (PCTK1)/cyclin Y): -12%
- inhibition at 1 µM (TESK1): -2%
- inhibition at 1 µM (MAPK10 (JNK3)): 5%
- inhibition at 1 µM (CDK2/cyclin O): 2%
- inhibition at 1 µM (ABL1 M351T): 8%
- inhibition at 1 µM (STK32B (YANK2)): 0%
- inhibition at 1 µM (STK17B (DRAK2)): -4%
- inhibition at 1 µM (MYO3A (MYO3 alpha)): -6%
- inhibition at 1 µM (ERN1): 6%
- inhibition at 1 µM (DMPK): 4%
- inhibition at 1 µM (WNK1): 4%
- inhibition at 1 µM (CDK2/cyclin A1): 5%
- inhibition at 1 µM (MAPK15 (ERK7)): -11%
- inhibition at 1 µM (KIT Y823D): -4%

From paper doi:10.1101/2021.09.30.462449v1 (biorxiv, 2021)
